± gives the expanded uncertainty stated by the source.
How the values were obtained:
[1] = 101.33 kPa, Liquid; for speed of sound: Sing-around technique in a fixed-path interferometer; for mass density: Vibrating tube method
[2] = molar heat capacity at constant pressure; settings: 101.33 kPa, Liquid, Small sample (50 mg) DSC

Row | SMILES | speed of sound ([1]; 298.15 K) [m/s] | mass density ([1]; 298.15 K) [kg/m3] | speed of sound ([1]; 303.15 K) [m/s] | mass density ([1]; 303.15 K) [kg/m3] | speed of sound ([1]; 308.15 K) [m/s] | mass density ([1]; 308.15 K) [kg/m3] | molar heat capacity at constant pressure ([2]; 298.15 K) [J/K/mol] | molar heat capacity at constant pressure ([2]; 303.15 K) [J/K/mol] | molar heat capacity at constant pressure ([2]; 308.15 K) [J/K/mol]
1 | Cc1ccccc1Cl [2-chlorotoluene] | 1298.7 ± 1 | 1077.3 ± 1 | 1280.7 ± 1 | 1072.5 ± 1 | 1262.7 ± 1 | 1067.6 ± 1 | 178.21 ± 2.8 | 180.01 ± 2.8 | 181.71 ± 2.8
2 | Cc1ccccc1C [1,2-dimethylbenzene] | 1346.2 ± 0.8 | 875.91 ± 1 | 1326.2 ± 0.8 | 871.7 ± 1 | 1306.1 ± 0.8 | 867.48 ± 1 | 187.55 ± 2.9 | 189.11 ± 2.9 | 190.62 ± 3
3 | C1CCOCC1 [tetrahydropyran] | 1269.8 ± 0.9 | 879.13 ± 1 | 1246.8 ± 0.9 | 873.99 ± 1 | 1224.4 ± 0.9 | 868.83 ± 1 | 149.62 ± 2.3 | 151.22 ± 2.3 | 153.08 ± 2.4
4 | Cc1ccccc1 [toluene] | 1304.6 ± 1 | 862.18 ± 1 | 1283.2 ± 1 | 857.51 ± 1 | 1261.8 ± 1 | 852.82 ± 1 | 157.18 ± 2.4 | 158.61 ± 2.5 | 160.09 ± 2.5
5 | c1ccccc1 [benzene] | 1299.4 ± 0.8 | 873.54 ± 1 | 1276.1 ± 0.82 | 868.2 ± 1 | 1252.9 ± 0.82 | 862.84 ± 1 | 135.18 ± 2.1 | 136.4 ± 2.1 | 137.61 ± 2.1
